According to patent US7772183B2 (Bristol-Myers Squibb Company, priority 2005, dated 2010):

Experiments:
[1] = biological target: T1, HCV NS3/4A protease complex, BMS strain (UniProt P27958, species not given/STRAIN_BMS); test: FRET peptide assay to monitor HCV NS3/4A proteolytic activity (BMS strain); format: biochemical, Hepatitis C virus (genotype 1a); conditions: NS3/4A BMS strain; read-out: IC50 Range
T1 construct: said of H77 and J4L6S; fused on or other part: A three-lysine solubilising tail at the C-terminus of NS4A and a His tag (pET21b, Ni-NTA purification)
T1 sequence (P27958 1027-1657, change not shown, one chain of several): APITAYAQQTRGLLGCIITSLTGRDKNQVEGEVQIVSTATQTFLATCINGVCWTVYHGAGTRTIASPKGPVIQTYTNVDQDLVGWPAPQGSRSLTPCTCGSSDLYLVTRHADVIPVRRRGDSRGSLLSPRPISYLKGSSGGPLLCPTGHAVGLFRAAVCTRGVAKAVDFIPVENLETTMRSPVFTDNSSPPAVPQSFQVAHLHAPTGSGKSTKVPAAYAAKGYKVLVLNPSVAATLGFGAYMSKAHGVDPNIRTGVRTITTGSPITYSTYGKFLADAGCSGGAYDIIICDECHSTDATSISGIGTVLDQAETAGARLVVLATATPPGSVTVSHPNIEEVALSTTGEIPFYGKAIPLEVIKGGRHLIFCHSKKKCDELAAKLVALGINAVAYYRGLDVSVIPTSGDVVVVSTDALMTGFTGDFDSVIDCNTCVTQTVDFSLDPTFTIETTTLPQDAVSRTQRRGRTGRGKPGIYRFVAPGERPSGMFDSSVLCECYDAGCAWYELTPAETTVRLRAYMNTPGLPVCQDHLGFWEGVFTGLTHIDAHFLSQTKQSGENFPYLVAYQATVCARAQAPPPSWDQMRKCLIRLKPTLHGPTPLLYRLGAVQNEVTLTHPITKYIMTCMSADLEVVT
Method in brief: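 Recombinant NS3/4A complexes (aa 1027–1711) from H77 (1a) and J4L6S (1b) carried a three-lysine tail, C1711G and C1454S. They were expressed in E. coli BL21(DE3) (0.5 mM IPTG, 22 h, 20 °C), then purified by Ni-NTA and Superdex-S200 to >90% purity. The BMS strain was a genotype 1a clone from patient serum.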

[2] = test system: HCV replicon in HUH-7 cells; test: HCV replicon FRET assay; format: cell-based, Hepatitis C virus (strain 1b); conditions: Hepatitis C virus, Huh-7; HCV replicon, for compounds tested; read-out: EC50 Range
Method in brief: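 HUH-7 cells stably carrying a genotype 1b subgenomic HCV replicon (NS3–NS5B) treated with compound for 4 days at 37° C, 0.5% DMSO final. Cytotoxicity (CC50) read by alamar Blue; cells then lysed with 10 μM FRET HCV protease peptide substrate and kinetically read (340/490 nm) for EC50.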

COc1ccc(C(=O)O[C@@H]2C[C@H]3C(=O)N[C@]4(C(=O)NS(=O)(=O)C5CC5)C[C@H]4/C=C\COCCC[C@H](NC(=O)OC(C)(C)C)C(=O)N3C2)c(OC)c1 [Compound 8, 18-(2,4-dimethoxybenzoyloxy)-14-tert-butoxycarbonylamino-4-cyclopropylsulfonylaminocarbonyl-2,15-dioxo-3,16-diaza-10-oxatricyclo-[14.3.0.0^4,6]-nonadec-7-ene]
IC50 [1]: < 100 nM
melting point: 122 to 124 °C
EC50 [2]: 100 to 1000 nM

CCC(C(=O)O[C@@H]1C[C@H]2C(=O)N[C@]3(C(=O)NS(=O)(=O)C4CC4)C[C@H]3/C=C\COCCC[C@H](NC(=O)OC(C)(C)C)C(=O)N2C1)c1ccccc1 (mixture of isomers) [Compound 5, 18-(2-phenylbutyryloxy)-14-tert-butoxycarbonylamino-4-cyclopropylsulfonylaminocarbonyl-2,15-dioxo-3,16-diaza-10-oxatricyclo-[14.3.0.0^4,6]-nonadec-7-ene]
IC50 [1]: < 100 nM
melting point: 113 to 115 °C
EC50 [2]: > 1000 nM

CC(C)(C)OC(=O)N[C@H]1CCCOC/C=C\[C@@H]2C[C@@]2(C(=O)NS(=O)(=O)C2CC2)NC(=O)[C@@H]2C[C@@H](OC(=O)C3CCCCC3)CN2C1=O [Compound 3, 18-cyclohexanecarbonyloxy-14-tert-butoxycarbonylamino-4-cyclopropylsulfonylaminocarbonyl-2,15-dioxo-3,16-diaza-10-oxatricyclo-[14.3.0.0^4,6]-nonadec-7-ene]
IC50 [1]: < 100 nM
melting point: 128 to 130 °C
EC50 [2]: > 1000 nM

CCCC(C)C(=O)O[C@@H]1C[C@H]2C(=O)N[C@]3(C(=O)NS(=O)(=O)C4CC4)C[C@H]3/C=C\COCCC[C@H](NC(=O)OC(C)(C)C)C(=O)N2C1 (stereo partly drawn) [Compound 2, 18-(2-methylvaleryloxy)-14-tert-butoxycarbonylamino-4-cyclopropylsulfonylaminocarbonyl-2,15-dioxo-3,16-diaza-10-oxatricyclo-[14.3.0.0^4,6]-nonadec-7-ene]
IC50 [1]: < 100 nM
melting point: 121 to 123 °C
EC50 [2]: > 1000 nM

CC(C)(C)OC(=O)N[C@H]1CCCOC/C=C\[C@@H]2C[C@@]2(C(=O)NS(=O)(=O)C2CC2)NC(=O)[C@@H]2C[C@@H](OC(=O)C(C)(C)C)CN2C1=O [Compound 4, 18-pivaloyloxy-14-tert-butoxycarbonylamino-4-cyclopropylsulfonylaminocarbonyl-2,15-dioxo-3,16-diaza-10-oxatricyclo-[14.3.0.0^4,6]-nonadec-7-ene]
IC50 [1]: < 100 nM
melting point: 143 to 145 °C
EC50 [2]: > 1000 nM

CC(C)(C)OC(=O)N[C@H]1CCCCC/C=C\[C@@H]2C[C@@]2(C(=O)NS(=O)(=O)C2CC2)NC(=O)[C@@H]2C[C@@H](OC(=O)c3cccc(C#N)c3)CN2C1=O [Compound 33, 18-(3-cyanobenzoyloxy)-14-tert-butoxycarbonylamino-4-cyclopropylsulfonylaminocarbonyl-2,15-dioxo-3,16-diazatricyclo-[14.3.0.0^4,6]-nonadec-7-ene]
IC50 [1]: < 100 nM
melting point: 151 to 153 °C
EC50 [2]: 100 to 1000 nM

COc1ccc(C(=O)O[C@@H]2C[C@H]3C(=O)N[C@]4(C(=O)NS(=O)(=O)C5CC5)C[C@H]4/C=C\COCCC[C@H](NC(=O)OC(C)(C)C)C(=O)N3C2)cc1 [Compound 10, 18-(4-methoxybenzoyloxy)-14-tert-butoxycarbonylamino-4-cyclopropylsulfonylaminocarbonyl-2,15-dioxo-3,16-diaza-10-oxatricyclo-[14.3.0.0^4,6]-nonadec-7-ene]
IC50 [1]: < 100 nM
melting point: 145 to 147 °C
EC50 [2]: 100 to 1000 nM

CC(C)(C)OC(=O)N[C@H]1CCCCC/C=C\[C@@H]2C[C@@]2(C(=O)NS(=O)(=O)C2CC2)NC(=O)[C@@H]2C[C@@H](OC(=O)c3ccc4nccnc4c3)CN2C1=O [Compound 24, 18-(6-quinoxalinecarbonyloxy)-14-tert-butoxycarbonylamino-4-cyclopropylsulfonylaminocarbonyl-2,15-dioxo-3,16-diazatricyclo-[14.3.0.0^4,6]-nonadec-7-ene]
IC50 [1]: < 100 nM
melting point: 158 to 160 °C
EC50 [2]: < 100 nM

COc1ccccc1C(=O)O[C@@H]1C[C@H]2C(=O)N[C@]3(C(=O)NS(=O)(=O)C4CC4)C[C@H]3/C=C\COCCC[C@H](NC(=O)OC(C)(C)C)C(=O)N2C1 [Compound 7, 18-(2-methoxybenzoyloxy)-14-tert-butoxycarbonylamino-4-cyclopropylsulfonylaminocarbonyl-2,15-dioxo-3,16-diaza-10-oxa-tricyclo-[14.3.0.0^4,6]-nonadec-7-ene]
IC50 [1]: < 100 nM
melting point: 144 to 146 °C
EC50 [2]: > 1000 nM

CC(C)(C)OC(=O)N[C@H]1CCCCC/C=C\[C@@H]2C[C@@]2(C(=O)NS(=O)(=O)C2CC2)NC(=O)[C@@H]2C[C@@H](OC(=O)c3cccnc3)CN2C1=O [Compound 30, 18-(nicotinoyloxy)-14-tert-butoxycarbonylamino-4-cyclopropylsulfonylaminocarbonyl-2,15-dioxo-3,16-diazatricyclo-[14.3.0.0^4,6]-nonadec-7-ene]
IC50 [1]: < 100 nM
melting point: 157 to 159 °C
EC50 [2]: > 1000 nM

COc1cccc(C(=O)O[C@@H]2C[C@H]3C(=O)N[C@]4(C(=O)NS(=O)(=O)C5CC5)C[C@H]4/C=C\COCCC[C@H](NC(=O)OC(C)(C)C)C(=O)N3C2)c1 [Compound 9, 18-(3-methoxybenzoyloxy)-14-tert-butoxycarbonylamino-4-cyclopropylsulfonylaminocarbonyl-2,15-dioxo-3,16-diaza-10-oxatricyclo-[14.3.0.0^4,6]-nonadec-7-ene]
IC50 [1]: < 100 nM
melting point: 149 to 151 °C
EC50 [2]: 100 to 1000 nM

CC(C)(C)OC(=O)N[C@H]1CCCOC/C=C\[C@@H]2C[C@@]2(C(=O)NS(=O)(=O)C2CC2)NC(=O)[C@@H]2C[C@@H](OC(=O)CC3CCCCC3)CN2C1=O [Compound 6, 18-cyclohexaneacetyloxy-14-tert-butoxycarbonylamino-4-cyclopropylsulfonylaminocarbonyl-2,15-dioxo-3,16-diaza-10-oxatricyclo-[14.3.0.0^4,6]-nonadec-7-ene]
IC50 [1]: < 100 nM
melting point: 107 to 109 °C
EC50 [2]: > 1000 nM

CC(C)(C)OC(=O)N[C@H]1CCCCC/C=C\[C@@H]2C[C@@]2(C(=O)NS(=O)(=O)C2CC2)NC(=O)[C@@H]2C[C@@H](OC(=O)c3cccc(Cl)c3)CN2C1=O [Compound 22, 18-(3-chorobenzoyloxy)-14-tert-butoxycarbonylamino-4-cyclopropylsulfonylaminocarbonyl-2,15-dioxo-3,16-diazatricyclo-[14.3.0.0^4,6]-nonadec-7-ene]
IC50 [1]: < 100 nM
melting point: 154 to 156 °C
EC50 [2]: < 100 nM

CC(C)(C)OC(=O)N[C@H]1COCCC/C=C\[C@@H]2C[C@@]2(C(=O)NS(=O)(=O)C2CC2)NC(=O)[C@@H]2C[C@@H](OC(=O)c3ccccc3)CN2C1=O [Compound 12, 18-benzoyloxy-14-tert-butoxycarbonylamino-4-cyclopropylsulfonylaminocarbonyl-2,15-dioxo-3,16-diaza-12-oxatricyclo-[14.3.0.0^4,6]-nonadec-7-ene]
IC50 [1]: < 100 nM
melting point: 135 to 137 °C
EC50 [2]: 100 to 1000 nM

COc1ccc(C(=O)O[C@@H]2C[C@H]3C(=O)N[C@]4(C(=O)NS(=O)(=O)C5CC5)C[C@H]4/C=C\CCCCC[C@H](NC(=O)OC(C)(C)C)C(=O)N3C2)cc1 [Compound 20, 18-(4-methoxybenzoyloxy)-14-tert-butoxycarbonylamino-4-cyclopropylsulfonylaminocarbonyl-2,15-dioxo-3,16-diazatricyclo-[14.3.0.0^4,6]-nonadec-7-ene]
IC50 [1]: < 100 nM
melting point: 151 to 153 °C
EC50 [2]: < 100 nM

CC(C)(C)OC(=O)N[C@H]1CCCCC/C=C\[C@@H]2C[C@@]2(C(=O)NS(=O)(=O)C2CC2)NC(=O)[C@@H]2C[C@@H](OC(=O)c3ccc(-n4cccn4)cc3)CN2C1=O [Compound 32, 18-(4-[1-pyrazolyl]benzoyloxy)-14-tert-butoxycarbonylamino-4-cyclopropylsulfonylaminocarbonyl-2,15-dioxo-3,16-diazatricyclo-[14.3.0.0^4,6]-nonadec-7-ene]
IC50 [1]: < 100 nM
melting point: 167 to 169 °C
EC50 [2]: < 100 nM

CC(C)(C)OC(=O)N[C@H]1COCCC/C=C\[C@@H]2C[C@@]2(C(=O)NS(=O)(=O)C2CC2)NC(=O)[C@@H]2C[C@@H](OC(=O)c3cccc(Oc4ccccc4)c3)CN2C1=O [Compound 13, 18-(3-phenoxybenzoyloxy)-14-tert-butoxycarbonylamino-4-cyclopropylsulfonylaminocarbonyl-2,15-dioxo-3,16-diaza-12-oxatricyclo-[14.3.0.0^4,6]-nonadec-7-ene]
IC50 [1]: < 100 nM
melting point: 123 to 125 °C
EC50 [2]: 100 to 1000 nM

CC(C)(C)OC(=O)N[C@H]1CCCCC/C=C\[C@@H]2C[C@@]2(C(=O)NS(=O)(=O)C2CC2)NC(=O)[C@@H]2C[C@@H](OC(=O)c3cccc(OC(F)(F)F)c3)CN2C1=O [Compound 17, 18-[(3-trifluoromethoxy)benzoyloxy]-14-tert-butoxycarbonylamino-4-cyclopropylsulfonylaminocarbonyl-2,15-dioxo-3,16-diazatricyclo-[14.3.0.0^4,6]-nonadec-7-ene]
IC50 [1]: < 100 nM
melting point: 132 to 134 °C
EC50 [2]: < 100 nM
